These results are taken from PMC4111603 (PLoS ONE, 2014).

Molecules are shown by their SMILES. Read-outs that look alike come from different tables or passages of the source.

Data set [1] deals with fatty acid amide hydrolase (FAAH). The conditions noted are these: cited from earlier work.
The conditions of data set [2]: cited from earlier work; for urinary recovery: 24 h after administration of 400 mg of ibuprofen.
The target in the next data set is T1, rat brain FAAH (Rattus norvegicus, UniProt P97612).
T1 construct: FAAH activity was quantified by measuring hydrolysis of tritium labelled AEA in rat brain homogenates; from tissue; host or cells: rat brain (minus cerebella), Wistar or Sprague-Dawley, washed membrane pellets
T1 sequence (P97612 1-579): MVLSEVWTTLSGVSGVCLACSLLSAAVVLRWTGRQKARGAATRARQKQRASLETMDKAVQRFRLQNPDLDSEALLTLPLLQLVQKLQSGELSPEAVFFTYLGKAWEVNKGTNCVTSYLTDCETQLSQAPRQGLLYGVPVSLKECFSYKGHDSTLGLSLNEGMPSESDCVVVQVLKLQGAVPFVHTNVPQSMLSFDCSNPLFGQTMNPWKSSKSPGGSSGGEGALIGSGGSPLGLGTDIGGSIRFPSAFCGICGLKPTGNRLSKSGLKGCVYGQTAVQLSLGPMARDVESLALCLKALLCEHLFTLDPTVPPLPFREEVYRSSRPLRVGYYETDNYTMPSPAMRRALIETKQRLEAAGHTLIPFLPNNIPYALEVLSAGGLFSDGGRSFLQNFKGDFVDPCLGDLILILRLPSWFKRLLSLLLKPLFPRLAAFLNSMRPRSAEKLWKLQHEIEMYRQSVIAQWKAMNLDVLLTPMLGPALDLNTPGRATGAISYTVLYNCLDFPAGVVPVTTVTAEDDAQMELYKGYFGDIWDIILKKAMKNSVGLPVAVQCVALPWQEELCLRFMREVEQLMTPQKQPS
In words: FAAH hydrolysis of [3H]AEA in rat brain homogenates. The conditions noted are these: 0.5 µM AEA; for inhibition at 1000 µM: read-out: % inhibition of [3H]AEA hydrolysis @ 1000 µM, 1000 µM compound. The class given is biochemical. On the procedure: Brains (minus cerebella) from adult Wistar or Sprague-Dawley stored at −80°C were thawed, weighed and homogenized in cold buffer (20 mM HEPES, 1 mM MgCl2 pH 7.0). Homogenates were centrifuged at 35,000 g at 4°C for 20 min and the pellet was resuspended in homogenization buffer (repeated twice) before being incubated at 37°C for 15 min to degrade any endogenous substrate that might interfere with the FAAH assay. Following centrifugation, the pellets were resuspended in cold buffer (50 mM Tris-HCl, 1 mM EDTA, 3 mM MgCl2, pH 7.4). The protein concentration of each homogenates was determined according to the Bradford assay after which the samples were frozen in aliquots at −80°C until used for FAAH assay. Ethical permission for the animal experiments was obtained from the local animal research ethical committee (Umeå Ethical Committee for Animal Research, Umeå, Sweden).
The assay was performed according to Boldrup et al.. Homogenates (1 µg protein per assay) diluted in 10 mM Tris-HCl, 1 mM EDTA, pH 7.4 or pH 5.1 were mixed with test substance dissolved in DMSO (total concentration in assay 5%) at an ambient temperature of 4°C. Reactions were initiated by addition of AEA-[^3H] (assay concentration 0.5 µM) in 10 mM Tris-HCl, 1 mM EDTA, pH 7.4 containing 10 mg ml^−1 fatty acid-free bovine serum and incubation at 37°C which was allowed to proceed for 10 min. […] Blank samples contained buffer instead of homogenate and DMSO (5%). The assay volume of each sample was 200 µl. The pH values given in the text were determined by measurement at 37°C of scaled-up mixtures of homogenization and assay buffers. The reaction was terminated by addition of 400 µl activated charcoal (80 µl activated charcoal +320 µl 0.5 M HCl) and placement of samples on ice. Samples were kept in room temperature for 45–60 min before being centrifuged at 2500 rpm for 10 min. Aliquots (200 µl) of the supernatant was analyzed for tritium content by liquid scintillation with quench correction.
(§1) FAAH inhibition was calculated using log(inhibitor) vs. response with variable slope (four parameters) algorithm in the GraphPad Prism computer program (GraphPad Software Inc., San Diego, CA. USA). […] The two curves were compared by Akaike’s informative criteria and the best fit was chosen. Initial COX activities were calculated as the change in oxygen tension between 10 and 30 seconds after addition of enzyme.

The next data set deals with T2, Ovine COX-1 (Ovis aries, UniProt P05979).
T2 construct: purchased Cayman Chemical Co. 60100
T2 sequence (P05979 25-600): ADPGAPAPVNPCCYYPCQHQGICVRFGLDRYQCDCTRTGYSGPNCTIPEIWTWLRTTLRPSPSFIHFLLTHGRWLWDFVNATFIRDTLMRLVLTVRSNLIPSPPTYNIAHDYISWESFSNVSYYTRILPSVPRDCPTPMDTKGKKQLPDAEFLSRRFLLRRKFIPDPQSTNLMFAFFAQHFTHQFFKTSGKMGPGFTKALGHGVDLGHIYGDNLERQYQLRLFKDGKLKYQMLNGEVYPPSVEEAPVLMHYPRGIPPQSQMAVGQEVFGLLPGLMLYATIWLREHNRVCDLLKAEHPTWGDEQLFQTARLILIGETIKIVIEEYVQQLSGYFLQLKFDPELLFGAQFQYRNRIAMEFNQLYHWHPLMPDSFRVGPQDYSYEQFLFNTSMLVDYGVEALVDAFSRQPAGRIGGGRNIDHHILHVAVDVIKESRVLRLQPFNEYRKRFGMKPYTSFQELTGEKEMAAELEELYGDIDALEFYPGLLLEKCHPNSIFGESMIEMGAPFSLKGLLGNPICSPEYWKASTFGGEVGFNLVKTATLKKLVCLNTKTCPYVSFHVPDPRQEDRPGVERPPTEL
The experiment in a line: COX-1 oxygenation of arachidonic acid, oxygen electrode. The conditions noted are these: for COX-1 activity (% of control): 10 µM AA, initial activity 10-30 s, mean ± s.e.m., n = 3; for inhibition at 300 µM: 300 µM compound, read-out: inhibition of COX-1-catalysed oxygenation of arachidonic acid. The class given is biochemical. On the procedure:
(§2) The assay was performed according to Meade et al. with minor modifications using an oxygen electrode chamber with integral stirring (Oxygraph System, Hansatech Instruments, King’s Lynn, U.K.). The electrode was calibrated to ambient temperature and air pressure. Samples were prepared in 0.1 M Tris-HCl buffer pH 7.4 containing 1 µM haematin, 2 mM phenol, 5 mM EDTA, 10 µM substrate (AA or 2-AG) (final assay volume was 2 ml). After addition of test substance dissolved in DMSO (final assay concentration 1%) a baseline was established for 5 min before initiation of reaction by addition of 200 units COX-1 or COX-2. Change in oxygen consumption was monitored for approximately 5 min.
as §1

The conditions of data set [3]: cited from earlier work.
The test system of another data set is COX-1. Details: method as in PMID 24120370. The conditions noted are these: read-out: IC50, AA oxygenation by COX-1; cited from earlier work.
Data set [4] deals with COX-2. The conditions noted are these: read-out: IC50, AA oxygenation by COX-2; cited from earlier work.
In data set [5] the test system is COX-2. The conditions noted are these: read-out: IC50, 2-AG oxygenation; cited from earlier work.
Data set [6] addresses T3, human recombinant COX-2 (Homo sapiens, UniProt P35354).
T3 construct: purchased Cayman Chemical Co. 60122
T3 sequence (P35354 18-604): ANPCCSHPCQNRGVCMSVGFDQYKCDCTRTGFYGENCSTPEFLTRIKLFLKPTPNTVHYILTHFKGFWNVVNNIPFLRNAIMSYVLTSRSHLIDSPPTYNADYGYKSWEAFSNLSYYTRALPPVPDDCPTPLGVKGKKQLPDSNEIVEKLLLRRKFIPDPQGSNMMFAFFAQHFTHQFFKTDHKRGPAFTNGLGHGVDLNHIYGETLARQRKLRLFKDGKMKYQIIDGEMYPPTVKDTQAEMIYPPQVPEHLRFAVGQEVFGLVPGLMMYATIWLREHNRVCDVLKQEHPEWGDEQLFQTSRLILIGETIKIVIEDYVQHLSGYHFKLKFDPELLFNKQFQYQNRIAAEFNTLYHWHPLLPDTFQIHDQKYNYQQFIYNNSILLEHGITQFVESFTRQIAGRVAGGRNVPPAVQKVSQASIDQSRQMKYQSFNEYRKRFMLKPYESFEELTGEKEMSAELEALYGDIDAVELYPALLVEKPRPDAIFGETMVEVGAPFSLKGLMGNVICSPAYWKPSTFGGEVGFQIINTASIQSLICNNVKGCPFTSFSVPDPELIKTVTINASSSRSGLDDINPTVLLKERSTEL
In words: COX-2 oxygenation of arachidonic acid, oxygen electrode. In kind it is biochemical. The conditions noted are these: for COX-2 activity (% of control): substrate AA 10 µM, initial activity 10-30 s, n = 3. The protocol: as §2, §1

For data set [7], the target named is T3, human recombinant COX-2. The experiment in a line: COX-2 oxygenation of 2-AG, oxygen electrode. The conditions noted are these: for COX-2 activity (% of control): substrate 2-AG 10 µM, initial activity 10-30 s, n = 3. In kind it is biochemical. On the procedure:
as §2, §1

A further data set deals with µ-opoid receptors. The conditions noted are these: cited from earlier work.
For a further data set, the system named is FAAH. The arrangement: method as in PMID 16997568. The conditions noted are these: pH 6 and 8; rat brain homogenates; cited from earlier work.
The subject of another data set is NAAA. Details: method as in PMID 16154384. The conditions noted are these: cited from earlier work.
[8] abbreviates: pH 6.0, read-out: IC50, inhibition of [3H]AEA hydrolysis (converted).
Setting [9] is: pH 6.0, read-out: pI50, inhibition of [3H]AEA hydrolysis (converted).

In general, inhibition refers to the relative decrease from the control value, in per cent.

As for `Cc1cccnc1NC(=O)C(C)c1ccc(CC(C)C)cc1` (stereo not drawn), the “potency as FAAH inhibitor at pH 6 versus pH 8” value in data set [1] was “slightly less potent inhibitor of FAAH at pH 6 than at pH 8”.
On to `CC(C(=O)O)c1ccc(-c2ccccc2)c(F)c1` (racemic) [Flurbiprofen, (±)-2-flouro-α-methyl(1,1′-biphenyl)-4-acetic acid, reference compound], for which, in [2] (flurbiprofen 50 mg a day for 10 consecutive days), the “share of the dose recovered in the urine” value is given as 23%. Besides, the IC50 is 28 µM at rat brain FAAH (setting [8]); 27.5 µM at rat brain FAAH (setting [9]); 51 µM on rat brain FAAH (pH 7.3, read-out: IC50, inhibition of [3H]AEA hydrolysis (converted)); 51.3 µM at rat brain FAAH (pH 7.3, read-out: pI50, inhibition of [3H]AEA hydrolysis (converted)); […] with COX-1; […] with COX-2 [4]. In the data set on COX-2 [5], the IC50 is […]. The “inhibition of COX-1” value against Ovine COX-1 (30 µM compound) is reported as “Complete inhibition”. For the same molecule, the “maximal plasma concentration (racemate equivalent of R- and S-enantiomers)” value in data set [3] (dose of 50 mg) is recorded as […].
As to `CC(C)Cc1ccc(C(C)C(=O)O)cc1` (racemic) [Ibuprofen, (±)-2-(4-Isobutylphenyl)propanoic acid], the IC50 in data set [1] (read-out: potency, inhibition of AEA hydrolysis by FAAH) was 270 µM. Besides, in data set [2], the urinary recovery is 11%. In addition, the peak plasma concentration in data set [3] (200 mg single doses of two different ibuprofen preparations) was 110 to 150 µM.
As to `CC(C(=O)O)c1ccc(C(O)C(C)C)cc1` (stereo not drawn) [1′-OH-Ibuprofen, 2-[4-(1-hydroxy-2-methylpropyl)phenyl]propionic acid], the IC50 on rat brain FAAH (setting [8]) is 340 µM; on rat brain FAAH (setting [9]), 339 µM. For the same molecule, at rat brain FAAH (pH 7.3), the inhibition at 1000 µM came out at 47 ± 0.8%. In addition, the “COX-1 activity (% of control)” value at Ovine COX-1 (100 µM NSAID) is 112±21 % of control; on Ovine COX-1 (300 µM NSAID), 81±21 % of control; at Ovine COX-1 (1000 µM NSAID), 102±18 % of control. Further, the inhibition at 300 µM on Ovine COX-1 worked out at 19%. In addition, the “COX-2 activity (% of control)” value on human recombinant COX-2 [6] (100 µM NSAID) is reported as 91±8 % of control; at human recombinant COX-2 [6] (300 µM NSAID) it was 59±13 % of control; at human recombinant COX-2 [7] (100 µM NSAID), 103±22 % of control; on human recombinant COX-2 [7] (300 µM NSAID), 108±15 % of control.
For `CN1CC[C@]23c4c5ccc(O)c4O[C@H]2[C@@H](O[C@@H]2O[C@H](C(=O)O)[C@@H](O)[C@H](O)[C@H]2O)C=C[C@H]3[C@H]1C5` [6-glucuronide metabolite of morphine], in the data set with µ-opoid receptors, the “potency relative to parent drug (morphine)” value was 2–4 times.
As for `CC(Cc1ccc(C(C)C(=O)O)cc1)C(=O)O` (stereo not drawn) [Carboxyibuprofen, 2-[4-(2-carboxypropyl)phenyl]propionic acid], the urinary recovery in [2] is 40%. The results for the IC50 on rat brain FAAH (setting [8]) and at rat brain FAAH (setting [9]) were 410 µM and 417 µM, respectively. At rat brain FAAH (pH 7.3), the inhibition at 1000 µM was 31 ± 4%. Also, the inhibition at 300 µM on Ovine COX-1 came out at 4%. Moreover, the “effect on rate of oxygenation of AA” value at human recombinant COX-2 [6] (10 µM compound, Fig. S2, preliminary, two experiments) was “appeared to increase the rate of oxygenation”. The “COX-2 activity (% of control)” value at human recombinant COX-2 [6] (100 µM NSAID) is listed as 132±16 % of control; on human recombinant COX-2 [6] (300 µM NSAID), 139±41 % of control; on human recombinant COX-2 [7] (100 µM NSAID), 105±19 % of control; at human recombinant COX-2 [7] (300 µM NSAID) it was 132±17 % of control. Moreover, on human recombinant COX-2 [7] (300 µM compound, Fig. S1), the “effect on rate of oxygenation of 2-AG” value is given as “appeared to increase the rate of oxygenation”.
On to `NC(=O)c1cccc(-c2cccc(OC(=O)NC3CCCCC3)c2)c1` [URB597], for which the “inhibition of AEA hydrolysis” value in the data set with FAAH was “completely inhibits”. The “activity towards NAAA” value in the data set with NAAA is recorded as “lacks activity”.
